How the values were obtained:
[1] = target: T1, short chain acyl-CoA oxidase (ACX4) (Arabidopsis thaliana, UniProt Q96329); experiment: Activity test of ACX4 cell free extract, HPLC analysis; assay type: biochemical; conditions: ACX4 cell free extract 0.8 mg/ml, isobutyryl-CoA 500 μM, FAD 10 μM, HEPES pH 7.5, 30° C., 30 min
T1 construct: made in house; host or cells: E. coli BL21 (DE3) pLysS pET20b(+)::ACX4, cell free extract
T1 sequence (Q96329 1-436): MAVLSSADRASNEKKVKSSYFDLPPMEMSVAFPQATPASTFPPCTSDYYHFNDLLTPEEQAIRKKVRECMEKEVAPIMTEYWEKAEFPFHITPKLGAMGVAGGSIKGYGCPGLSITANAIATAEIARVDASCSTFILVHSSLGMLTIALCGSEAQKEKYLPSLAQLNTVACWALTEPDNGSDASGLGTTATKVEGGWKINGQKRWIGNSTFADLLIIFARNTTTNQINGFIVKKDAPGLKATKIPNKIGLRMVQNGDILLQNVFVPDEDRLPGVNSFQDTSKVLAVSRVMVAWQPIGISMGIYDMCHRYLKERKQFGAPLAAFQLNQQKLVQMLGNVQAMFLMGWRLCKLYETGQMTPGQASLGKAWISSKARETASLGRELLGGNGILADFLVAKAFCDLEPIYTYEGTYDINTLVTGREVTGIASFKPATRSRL
Method: To prepare a cell free extract of the ACX4 enzyme, one of the cell pellets that was prepared previously was re-suspended in HEPES (50 mM, pH 7.5) buffer (6 ml) that was supplemented with flavin adenine dinucleotide (FAD) at a final concentration of 10 μM. The re-suspended cells were then lysed in a Constant Systems One Shot cell disrupter. The lysate was centrifuged at 18,000 g for 15 min at 4° C. and the supernatant of this was further centrifuged at […] for 60 min at 4° C. The supernatant was concentrated in a VivaSpin Viva6 10,000 Molecular Weight Cut-Off centrifugal concentrator, centrifuging at 10,000 g at 18° C. until a six-fold volume reduction of the retentate. […] The total protein concentration in the retentate was determined using the BioRad DC protein assay kit, using bovine serum albumin as the protein standard. […]
The activity test of ACX4 was performed in 1.5 ml micro-centrifuge tubes. […] The reaction was incubated at 30° C. in the 1.5 ml micro-centrifuge tube, with shaking at 250 rpm for 30 min and the final reaction product was analysed by analytical HPLC (FIG. 5). […]
In order to confirm that the methacrylyl-CoA peak was genuine, and that it was not an isobutyryl-CoA peak with a shifted elution time, the sample was spiked with isobutyryl-CoA and analysed by HPLC again. […]

acyl-CoA synthetase AcsA = conditions: published value, cited from earlier work
[2] = target: T2, 4-hydroxybenzoyl-CoA thioesterase (4HBT) (Arthrobacter sp, UniProt Q04416); experiment: Crude enzymatic assays of 4HBT cell free extract (DTNB, 412 nm); assay type: biochemical, Arthrobacter sp. strain SU; conditions: cell free protein extract 1 mg/ml
T2 construct: made in house; host or cells: E. coli BL21 (DE3) pLysS pET20b(+)::4HBT, cell free extract
T2 sequence (Q04416 whole entry): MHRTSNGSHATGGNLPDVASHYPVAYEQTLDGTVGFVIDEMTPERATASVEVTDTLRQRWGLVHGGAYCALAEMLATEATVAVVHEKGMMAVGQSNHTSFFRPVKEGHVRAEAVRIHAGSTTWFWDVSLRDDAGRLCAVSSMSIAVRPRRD
Method: To prepare a cell free extract of the 4HBT enzyme, one of the cell pellets of E. coli BL21 (DE3) pLysS pET20b(+)::4HBT that was prepared previously was re-suspended in HEPES (50 mM, pH 7.5) assay buffer and lysed in a Constant Systems One Shot cell disrupter. The cell lysate was centrifuged at 18,000 g for 15 min at 4° C. and the supernatant of this was centrifuged at 57,750 g for a further 60 min at 4° C. This supernatant was washed using a VivaSpin Viva6 10,000 Molecular Weight Cut-Off centrifugal concentrator, centrifuging at 10,000 g at 18° C. until a six-fold volume reduction, followed by a six-fold re-dilution in the HEPES assay buffer and a further 6-fold volume reduction in the centrifugal concentrator. The total protein concentration of the cell free extracts from E. coli BL21 (DE3) pLysS pET20b(+)::4HBT overexpression cultures was performed using the BioRad DC assay kit, using bovine serum albumin as the protein standard. The same procedure was followed in order to prepare cell free extracts from a cell pellet of the E. coli BL21 (DE3) pLysS pET20b(+), the negative control strain.
Crude enzymatic assays of 4HBT were performed in cuvettes (1 ml) containing cell free protein extract (1 mg·ml^−1), methacrylyl-CoA (approximately 100 μM), 5′5-dithiobis-(2-nitrobenzoic) acid (DTNB) (500 μM). Reactions were started by the addition of substrate and were monitored at 412 nm. […]

CC(C)C(=O)SCCNC(=O)CCNC(=O)[C@H](O)C(C)(C)COP(=O)(O)OP(=O)(O)OC[C@H]1O[C@@H](n2cnc3c(N)ncnc32)[C@H](O)[C@@H]1OP(=O)(O)O [isobutyryl-CoA]
oxidation of substrate by ACX4 [1]: oxidises

CC(C)C(=O)O [isobutyric acid]
turnover number (kcat) (acyl-CoA synthetase AcsA): 10.6 s⁻¹ | Km (acyl-CoA synthetase AcsA; read-out: Michaelis constant (Km)): 140 µM

C=C(C)C(=O)SCCNC(=O)CCNC(=O)[C@H](O)C(C)(C)COP(=O)(O)OP(=O)(O)OC[C@H]1O[C@@H](n2cnc3c(N)ncnc32)[C@H](O)[C@@H]1OP(=O)(O)O [methacrylyl-CoA]
substrate selectivity of 4HBT ([2]; methacrylyl-CoA versus isobutyryl-CoA): selectivity for methacrylyl-CoA over isobutyryl-CoA | hydrolysis of substrate by 4HBT ([2]; substrate approximately 100 μM, DTNB 500 μM): catalysed the hydrolysis
